Measurements reported in patent US20240335575A1, “METHOD AND APPARATUS FOR INACTIVATING PATHOGENS IN UNITS OF WHOLE BLOOD USING SUPERPARAMAGNETIC NANOPARTICLES COATED WITH CHEMILUMINESCENCE REAGENTS AND BROAD-SPECTRUM ANTI-VIRAL THERAPEUTICS” (Aphios Corporation, priority 2021, published 2024).

Experiments:
BVDV [1] = test: BVDV inactivation in spiked human RBCC by hypericin with luciferase system; assay type: cell-based, Bovine Viral Diarrhea Virus; conditions: for Unwashed Titer / Washed Titer: RT 2 hours in the dark; for Unwashed Titer / Unwashed VRF: unwashed samples; for Unwashed Titer: doses per sample label; for Washed Titer / Washed VRF: washed samples; for Combined VRF: treatment plus washing, compared to unwashed untreated RBC control; for Unwashed VRF: compared to titer of untreated RBC control; for Washed VRF: compared to washed untreated RBC control
Experimental: Ten different combinations of DMEM (—Ca^++, —Mg^++), RBCC, virus, hypericin, Luciferin, ATP and luciferase were prepared to all contain equivalent titers of BVDV calculated to be 6.48 log10TCID50/mL based on the titer of the original virus stock. The concentrations of hypericin tested were 0, 40 and 200 μg/mL. Luciferase was tested at 0, 0.8 and 4.0 μM. Luciferin and ATP were present at 80 and 800 μM respectively when luciferase was present and absent in the absence of luciferase.
The components were mixed and incubated at RT for 2 hours in the dark followed by titration of unwashed and washed samples as previously described. Washing rows of wells with dilutions 1 and 2 was performed 3 days post-infection. Final CPEs were read 10 days post-infection.
The various combinations tested, the titers obtained and the calculated VRFs compared to the titer of the untreated RBC control are listed in Table 2.

RBC = test: Cytotoxicity, interference, RBC morphology and integrity after hypericin treatment; assay type: cell-based
Experimental: Cytotoxicity and interference studies are performed per CPMP/FDA guidelines to calculate the reduction in viral titers due to these factors and exclude them from the calculated reduction factors resulting from the antiviral treatment. The antiviral compounds are removed from the system by washing the erythrocytes. Appropriate controls are kept to determine the contribution of washing to the viral reduction factors.

BVDV [2] = test: BVDV inactivation in spiked RBCC by doxorubicin alone; assay type: cell-based, Bovine Viral Diarrhea Virus; conditions: for Unwashed Titer / Washed Titer: 37° C. 2 hours in the dark; for Unwashed Titer: doxorubicin Low = 0.53 mM, High = 1.6 mM; for Combined VRF: treatment plus washing, compared to mean unwashed RBC controls; for Unwashed VRF: compared to mean titer of untreated RBC controls; for Washed VRF: compared to mean titer of washed untreated RBC controls
Experimental: Two levels of doxorubicin (low and high), RBCC, virus and DMEM (—Ca^++, —Mg^++) were prepared to all contain equivalent titers of BVDV calculated to be 6.23 log10 TCID50/mL (logs) based on the titer of the original virus stock.
The components were mixed and incubated at 37° C. for 2 hours in the dark followed by titration of unwashed and washed samples as previously described. Washing rows of wells with dilutions 1 and 2 was performed the next day. Final CPE were read 2 weeks post-infection. Cells were also monitored for cytotoxicity from the treatment components other than the virus 1 day and 2 weeks post-infection as in previous experiments.
The various combinations tested, the titers obtained and the calculated VRFs compared to the mean titer of the untreated RBC controls are listed in Table 4. There was no hemolysis or clumping for any of the samples at the end of the treatment period.

[3] = system: Human Adenovirus-2 (HAd-2); test: Earlier inactivation of HAd-2 in unwashed RBCC samples; assay type: cell-based; conditions: doxorubicin alone, observed previously

Compound	Unwashed Titer (BVDV [1])	Washed Titer (BVDV [1])	Combined VRF (BVDV [1])	Unwashed VRF (BVDV [1])	Washed VRF (BVDV [1])	Unwashed Titer (BVDV [2])	Washed Titer (BVDV [2])	Combined VRF (BVDV [2])	Unwashed VRF (BVDV [2])	Washed VRF (BVDV [2])	also measured
Cc1cc(O)c2c(=O)c3c(O)cc(O)c4c5c(O)cc(O)c6c(=O)c7c(O)cc(C)c8c1c2c(c34)c(c78)c65 [HH-LN, Hypericin]	3.10 log10TCID50/mL	2.48 log10TCID50/mL	3.87 logs	3.25 logs	1.50 logs	–	–	–	–	–	–
Cc1cc(O)c2c(=O)c3c(O)cc(O)c4c5c(O)cc(O)c6c(=O)c7c(O)cc(C)c8c1c2c(c34)c(c78)c65 [Hypericin]	–	–	–	–	–	–	–	–	–	–	impact on cytotoxicity, interference, RBC morphology and integrity (RBC; hypericin 40 μg/mL with CDP-Star 0.1 mM): very little impact; impact on cytotoxicity, interference, RBC morphology and integrity (RBC; hypericin 40 μg/mL with luciferase 0.16 μM): very little impact
COc1cccc2c1C(=O)c1c(O)c3c(c(O)c1C2=O)C[C@@](O)(C(=O)CO)C[C@@H]3O[C@H]1C[C@H](N)[C@H](O)[C@H](C)O1 [Dox-H, Doxorubicin]	–	–	–	–	–	3.10 log10 TCID50/mL	3.10 log10 TCID50/mL	2.50 logs	2.50 logs	−0.19 logs	–
COc1cccc2c1C(=O)c1c(O)c3c(c(O)c1C2=O)C[C@@](O)(C(=O)CO)C[C@@H]3O[C@H]1C[C@H](N)[C@H](O)[C@H](C)O1 [Doxorubicin, (1S,3S)-3-glycoloyl-3,5,12-trihydroxy-10-methoxy-6,11-dioxo-1,2,3,4,6,11-hexahydrotetracen-1-yl 3-amino-2,3,6-trideoxy-α-L-lyxo-hexo-pyranoside]	–	–	–	–	–	–	–	–	–	–	viral inactivation activity against HAd-2 virus [3]: has viral inactivation activity; viral inactivation activity against BVDV (BVDV [2]; doxorubicin treatment alone): has viral inactivation activity
Cc1cc(O)c2c(=O)c3c(O)cc(O)c4c5c(O)cc(O)c6c(=O)c7c(O)cc(C)c8c1c2c(c34)c(c78)c65 [HL-LN, Hypericin]	3.48 log10TCID50/mL	<2.34 log10TCID50/mL	>4.01 logs	2.87 logs	>1.64 logs	–	–	–	–	–	–
COc1cccc2c1C(=O)c1c(O)c3c(c(O)c1C2=O)C[C@@](O)(C(=O)CO)C[C@@H]3O[C@H]1C[C@H](N)[C@H](O)[C@H](C)O1 [Dox-L, Doxorubicin]	–	–	–	–	–	3.23 log10 TCID50/mL	3.10 log10 TCID50/mL	2.50 logs	2.38 logs	−0.19 logs	–
